These results are taken from patent US12630785B2, “Liquid fabric care compositions comprising capsules” (The Procter & Gamble Company, priority 2020, dated 2026).

Molecules are shown by their SMILES.

Data set [1] in a line: Capsule perfume leakage in liquid fabric enhancer (LFE), headspace SPME GC/MS. The format is physicochemical. The procedure:
The testing of capsule leakage in liquid compositions (e.g., liquid fabric enhancer/“LFE” compositions and/or heavy-duty liquid/“HDL” detergents) is performed as follows. […] The 1 gram aliquot in the 7 ml vial is then mixed on a stirring plate for 24 h at 500 rpm, thereby ensuring that the capsules are broken by the grinding action of the stir bar against the bottom of the 7 ml vial. Optical microscopy can be used to verify that no more intact capsules remain. In case such capsules are found, the step is to repeated for an additional 24 h, or until all or almost all capsules are broken. Then, the formulation containing broken capsules is introduced into GC vials in a similar manner as for step (a). This yields total oil samples. It is to be noted that the capsule sample and the total oil sample are not analyzed on the same day, as there is a need to prepare the total oil sample after the capsule sample has been removed from storage. […] The perfume oil composition formulated herein is representative of the perfume oil composition that is present in the slurry. Then the free oil formulation is introduced into GC vials in a similar manner as for step (a). This yields reference samples, which must be used when analyzing both the capsule sample and the total oil sample. […] Two headspace vials are prepared for each sample. The sealed headspace vials are then allowed to equilibrate. Samples reach equilibrium after 3 hours at room temperature, but can be left to sit longer without detriment or change to the results, up until 24 hours after sealing the headspace vial. After equilibrating, the samples are analyzed by GC/MS. […] The perfume composition is analyzed by fast GC/MS in full scan mode. Ion extraction of the specific mass for each component is obtained. The leakage is calculated as follows, separately for the capsule sample and total oil sample, where “Area” denotes the area under the chromatogram peak corresponding to the PRM of interest: Once calculated for all PRMs for both the total oil sample and the capsule sample, the corrected PRM leakage can be calculated using the following formula: Once the corrected PRM leakage has been calculated for all PRMs, the Average leakage can be found by taking the arithmetic mean of each corrected PRM leakage. […] The resulting products are stored for one week at 35° C. At the end of the storage period, samples of each product composition are analyzed for perfume leakage out of the capsule using headspace analysis. The data is reported as a percentage, determined by comparing the amount of the individual perfume raw materials found in the headspace to the amount originally provided to the capsules.

Data set [2] in a line: Capsule perfume leakage in heavy-duty liquid (HDL) detergent, headspace SPME GC/MS. Format: physicochemical. As to the method:
The testing of capsule leakage in liquid compositions (e.g., liquid fabric enhancer/“LFE” compositions and/or heavy-duty liquid/“HDL” detergents) is performed as follows. […] The 1 gram aliquot in the 7 ml vial is then mixed on a stirring plate for 24 h at 500 rpm, thereby ensuring that the capsules are broken by the grinding action of the stir bar against the bottom of the 7 ml vial. Optical microscopy can be used to verify that no more intact capsules remain. In case such capsules are found, the step is to repeated for an additional 24 h, or until all or almost all capsules are broken. Then, the formulation containing broken capsules is introduced into GC vials in a similar manner as for step (a). This yields total oil samples. It is to be noted that the capsule sample and the total oil sample are not analyzed on the same day, as there is a need to prepare the total oil sample after the capsule sample has been removed from storage. […] The perfume oil composition formulated herein is representative of the perfume oil composition that is present in the slurry. Then the free oil formulation is introduced into GC vials in a similar manner as for step (a). This yields reference samples, which must be used when analyzing both the capsule sample and the total oil sample. […] Two headspace vials are prepared for each sample. The sealed headspace vials are then allowed to equilibrate. […] After equilibrating, the samples are analyzed by GC/MS. […] The perfume composition is analyzed by fast GC/MS in full scan mode. Ion extraction of the specific mass for each component is obtained. The leakage is calculated as follows, separately for the capsule sample and total oil sample, where “Area” denotes the area under the chromatogram peak corresponding to the PRM of interest: Once calculated for all PRMs for both the total oil sample and the capsule sample, the corrected PRM leakage can be calculated using the following formula: Once the corrected PRM leakage has been calculated for all PRMs, the Average leakage can be found by taking the arithmetic mean of each corrected PRM leakage. […] The resulting products are stored for one week at 35° C. At the end of the storage period, samples of each product composition are analyzed for perfume leakage out of the capsule using headspace analysis. The data is reported as a percentage, determined by comparing the amount of the individual perfume raw materials found in the headspace to the amount originally provided to the capsules.

Where [3] appears, read: PRM of Perfume 1 out of Comparative Example 4-1 capsules (polyacrylate shell), LFE Composition 1, 0.25 wt % perfume.
The mark [4] stands for this setting: PRM of Perfume 1 out of Comparative Example 6-1 capsules (no second shell component), LFE Composition 1.
Where [5] appears, read: PRM of Perfume 1 out of Comparative Example 10-1 capsules (per EP2500087B1), LFE Composition 1.
[6] abbreviates: PRM of Perfume 1 out of Comparative Example 10-2 capsules (per WO2010013250A2, with IPM), LFE Composition 1.
The mark [7] stands for this setting: PRM of Perfume 1 out of Example 2, Sample A capsules, LFE Composition 1 (Ester Quat 1).
[8] abbreviates: PRM of Perfume 1 out of Example 2, Sample A capsules, LFE Composition 2 (Ester Quat 2).
Where [9] appears, read: PRM of Perfume 1 out of Example 2, Sample A capsules, LFE Composition 3 (Ester Quat 3).
Setting [10] is: PRM of Perfume 1 out of Example 4-1 capsules (silica shell), LFE Composition 1, 0.25 wt % perfume.
The mark [11] stands for this setting: PRM of Perfume 1 out of Example 6-1 capsules (w/ second shell component), LFE Composition 1.
The mark [12] stands for this setting: PRM of Perfume 1 out of Example 10-1 capsules (Sample F, Perfume 1/IPM 40/60), LFE Composition 1.
Where [13] appears, read: PRM of Perfume 1 out of Example 10-2 capsules (Sample A), LFE Composition 1.
[14] abbreviates: PRM of Perfume 2 out of Capsule Sample C, LFE Composition 1.
Setting [15] is: PRM of Perfume 3 out of Capsule Sample D, LFE Composition 1.
Where [16] appears, read: PRM of Perfume 4 out of Comparative Example 9-1 capsules (per EP3078415A), LFE Composition 1.
Setting [17] is: PRM of Perfume 4 out of Comparative Example 9-2 capsules (per EP3078415A, additional TEOS), LFE Composition 1.
Where [18] appears, read: PRM of Perfume 4 out of Example 9-1 capsules (Sample E), LFE Composition 1.
Setting [19] is: PRM of Perfume 1 out of Comparative Example 5-1 capsules (polyacrylate shell).
Where [20] appears, read: PRM of Perfume 1 out of Comparative example 5-2 capsules (per EP2500087B1).
[21] abbreviates: PRM of Perfume 1 out of Comparative example 5-3 capsules (per WO2010013250A2).
The mark [22] stands for this setting: PRM of Perfume 1 out of Example 5-1 capsules (silica shell).

In the case of `CCC(C)(O)CCCC(C)C` (centres unmarked) [Tetrahydro linalool], the “Leakage (as %) after 1 week at 35° C.” value in data set [1] (setting [3]) is 9%; in data set [1] (setting [4]), 83%; in data set [1] (setting [5]), 90%; in data set [1] (setting [6]) it was 95%; in data set [1] (setting [7]), 2.3%; in data set [1] (setting [8]), 1.1%. In addition, the “Leakage (as %) after 1 week at 35° C.” value in data set [1] (setting [9]) was found to be 1.2%; in data set [1] (setting [10]) it was 8%; in data set [1] (setting [11]) it was 8%; in data set [1] (setting [12]) it was 18%; in data set [1] (setting [13]) it was 8%; in data set [1] (setting [14]), 9%. Further, the “Leakage (as %) after 1 week at 35° C.” value in data set [1] (setting [15]) turned out to be 9%; in data set [1] (setting [16]) it was 70%; in data set [1] (setting [17]) it was 76%; in data set [1] (setting [18]), 17%; in data set [2] (setting [19]), 2%; in data set [2] (setting [20]) it was 105%. Further, the entries for the “Leakage (as %) after 1 week at 35° C.” value in data set [2] (setting [21]) and in data set [2] (setting [22]) were 102% and 27%, respectively.

As for `CC(=O)OC1CCCCC1C(C)(C)C` (centres unmarked) [(2-tert-butylcyclohexyl) acetate], the “Leakage (as %) after 1 week at 35° C.” value stood at 4% in data set [1] (setting [3]); 5% in data set [1] (setting [4]); 91% in data set [1] (setting [5]); 92% in data set [1] (setting [6]); 2.2% in data set [1] (setting [7]); 1.1% in data set [1] (setting [8]). The “Leakage (as %) after 1 week at 35° C.” value amounted to 1.3% in data set [1] (setting [9]); 10% in data set [1] (setting [10]); 11% in data set [1] (setting [11]); 20% in data set [1] (setting [12]); 11% in data set [1] (setting [13]); 1% in data set [2] (setting [19]). The “Leakage (as %) after 1 week at 35° C.” value was 105% in data set [2] (setting [20]), 101% in data set [2] (setting [21]) and 33% in data set [2] (setting [22]).

On to `CC(=O)C(C)=CC1C(C)=CCCC1(C)C` (centres unmarked) [3-Methyl-4-(2,6,6-trimethyl-2cyclohexen-1-yl)-3-buten-2-one], for which the “Leakage (as %) after 1 week at 35° C.” value in data set [1] (setting [15]) is 6%.

In the case of `CCC(=O)OC1C=CC2C3CCC(C3)C12` (centres unmarked) [3a,4,5,6,7,7a-hexahydro-1H-4,7-methanoinden-1-yl propanoate], the “Leakage (as %) after 1 week at 35° C.” value in data set [1] (setting [14]) was determined as 4%.

In the case of `CC=CC(=O)C1C(C)C=CCC1(C)C` (centres unmarked) [1-(2,6,6-trimethyl-1-cyclohex-3-enyl)but-2-en-1-one], the results for the “Leakage (as %) after 1 week at 35° C.” value in data set [1] (setting [14]) and in data set [1] (setting [15]) were 4% and 5%, respectively.

As to `CC(=O)/C=C/C1=C(C)CCCC1(C)C` [beta ionone], the “Leakage (as %) after 1 week at 35° C.” value in data set [1] (setting [15]) was 5%.

In the case of `CC(=O)/C=C/C1C(C)=CCCC1(C)C` (stereo not drawn) [Alpha-ionone], the results for the “Leakage (as %) after 1 week at 35° C.” value in data set [1] (setting [16]), in data set [1] (setting [17]) and in data set [1] (setting [18]) were 58%, 69% and 15%, respectively.

`C=CCCC(=O)C1=CCCC(C)(C)C1` [1-(5,5-dimethyl-1-cyclohexenyl)pent-4-en-1-one]: the “Leakage (as %) after 1 week at 35° C.” value in data set [1] (setting [14]) and in data set [1] (setting [15]) was 2% in each case.

Consider `c1ccc(Oc2ccccc2)cc1` [Diphenyl oxide], for which the “Leakage (as %) after 1 week at 35° C.” value in data set [1] (setting [14]) is 4%.

For the compound `CCCCCC/C(C=O)=C\c1ccccc1` [Hexylcinnamyl aldehyde], the “Leakage (as %) after 1 week at 35° C.” value in data set [1] (setting [16]) was determined as 22%; in data set [1] (setting [17]), 36%; in data set [1] (setting [18]), 7%.

For `CC1=CCC(C(C)(C)O)CC1` (stereo not drawn) [alpha-Terpineol], in data set [1] (setting [15]), the “Leakage (as %) after 1 week at 35° C.” value came to 10%.

With `COC(=O)OC1CC/C=C\CCC1` (centres unmarked) [[(4Z)-1-cyclooct-4-enyl] methyl carbonate], in data set [1] (setting [14]), the “Leakage (as %) after 1 week at 35° C.” value came out at 5%.

In the case of `CC(C)=CCCC(C)CCO` (centres unmarked) [Citronellol], the “Leakage (as %) after 1 week at 35° C.” value in data set [1] (setting [15]) was found to be 4%.

Consider `C=CCOC(=O)CCCCC` [Allyl caproate], for which, in data set [1] (setting [15]), the “Leakage (as %) after 1 week at 35° C.” value is given as 9%.

As for `CC(=O)OC(C)c1ccccc1` (centres unmarked) [Methyl phenyl carbinyl acetate], the “Leakage (as %) after 1 week at 35° C.” value in data set [1] (setting [15]) was 7%.

In the case of `CCCCCCOC(=O)c1ccccc1O` [Hexyl Salicylate], the “Leakage (as %) after 1 week at 35° C.” value in data set [1] (setting [16]) amounted to 34%; in data set [1] (setting [17]) it was 28%; in data set [1] (setting [18]), 3%.

For `CCC=C(C)C(O)CCCCC` (centres unmarked) [Undecavertol], the “Leakage (as %) after 1 week at 35° C.” value in data set [1] (setting [15]) is 11%.

For `CC(C)=CC1CC(C)CCO1` (centres unmarked) [Rose Oxide], the “Leakage (as %) after 1 week at 35° C.” value in data set [1] (setting [15]) was 8%.

As for `CC1=CC(C)C(C=O)CC1` (centres unmarked) [Ligustral-1], in data set [1] (setting [15]), the “Leakage (as %) after 1 week at 35° C.” value was 8%.

Regarding `CC(C=O)Cc1ccc(C(C)(C)C)cc1` (centres unmarked) [Lilial], the “Leakage (as %) after 1 week at 35° C.” value in data set [1] (setting [16]) was determined as 46%; in data set [1] (setting [17]), 61%; in data set [1] (setting [18]), 30%.

As to `CCCCCCCCCC(C)C=O` (centres unmarked) [Methyl nonyl acetaldehyde], the “Leakage (as %) after 1 week at 35° C.” value in data set [1] (setting [15]) was 4%.

As to `CCOC(=O)C1CCC(C(=O)OCC)CC1` (centres unmarked) [diethyl 1,4-cyclohexane dicarboxylate], in data set [1] (setting [14]), the “Leakage (as %) after 1 week at 35° C.” value is on record as 3%.
